Laboratory results reported in US8628767B2, “Purine nucleoside phosphorylase as enzymatic activator of nucleoside prodrugs” (priority 2008, dated 2014).

Columns and labels:
[1] = tested on: T. vaginalis PNP; assay: Substrate cleavage by wild-type Tv-PNP (HPLC); type: biochemical, Trichomonas vaginalis; conditions: for rate of enzymatic cleavage by T. vaginalis PNP: 100 micromolar substrate, HPLC separation of base from nucleoside; for activity of Tv-PNP as compared to wild-type E. coli PNP: summary of Table 1
Protocol: (§1) The method quantitatively measures the cleavage of substrates in vitro. The purine analog nucleosides (0.1 mM in 500 μl of 100 mM HEPES, pH 7.4, 50 mM potassium phosphate) are combined with 100 μg/ml Tv-PNP or wild-type E. coli PNP. The reaction mixtures are incubated at 25° C. for 1 hour, and the reactions stopped by boiling each sample for 2 minutes. Protein concentration and time of assay are varied depending on activity of enzyme for a particular substrate. Each sample is analyzed by reverse phase HPLC to measure conversion from substrate to product. The nucleoside and purine analogs are eluted from a Spherisorb ODSI (5 μm) column (Keystone Scientific, Inc., State College, Pa.) with a solvent containing 50 mM ammonium dihydrogen phosphate (95%) and acetonitrile (5%). Products are detected by absorbance at 254 nm, and are identified by comparing their retention times and absorption spectra with authentic control samples.
Numerous compounds are tested for efficiency as substrate for Tv-PNP in parallel comparison with E. coli PNP. The compounds include various analogs of adenosine, of inosine, of MeP-dR, and of fluoro- or chloro-substituted adenosine. The enzymes are incubated with 100 micromolar of each compound listed in the table and the rate of enzymatic cleavage is determined by HPLC separation of the base from the nucleoside. […] It is appreciated that the greater biological activity of the Tv-PNP enzyme allows for greater activity in impairing abnormal cell growth when the Tv-PNP is used for treatment of pathological conditions using F-araA as a prodrug substrate.

[2] = target: E. coli PNP (Escherichia coli, UniProt P0ABP8); assay: Substrate cleavage by wild-type E. coli PNP (HPLC); type: biochemical; conditions: 100 micromolar substrate, HPLC separation of base from nucleoside
Protocol: as §1
Numerous compounds are tested for efficiency as substrate for Tv-PNP in parallel comparison with E. coli PNP. […] The enzymes are incubated with 100 micromolar of each compound listed in the table and the rate of enzymatic cleavage is determined by HPLC separation of the base from the nucleoside.

Sequence of E. coli PNP (P0ABP8 whole entry): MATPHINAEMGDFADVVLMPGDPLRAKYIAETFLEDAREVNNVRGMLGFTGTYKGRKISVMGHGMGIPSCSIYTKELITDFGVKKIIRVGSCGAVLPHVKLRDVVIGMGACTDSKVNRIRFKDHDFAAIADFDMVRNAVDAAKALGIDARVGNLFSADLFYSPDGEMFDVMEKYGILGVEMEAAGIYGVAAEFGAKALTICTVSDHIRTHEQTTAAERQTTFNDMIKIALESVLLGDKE

Row | Compound | rate of enzymatic cleavage by T. vaginalis PNP [1] | rate of enzymatic cleavage by E. coli PNP [2] | rate of enzymatic cleavage by T. vaginalis PNP ([1]; listed as Cl-dAdo) | activity of Tv-PNP as compared to wild-type E. coli PNP [1] | rate of enzymatic cleavage by E. coli PNP ([2]; listed as Cl-dAdo)
1 | 9-β-D-pyranosyl-adenine | 2 nanomoles per milligrams per hour | <1 nanomoles per milligrams per hour |  |  | 
2 | Nc1nc(Cl)nc2c1ncn2[C@H]1C[C@H](O)[C@@H](CO)O1 [2-Cl-2′-deoxyadenosine (Cl-dAdo), 2-chloro-2′-deoxyadenosine, reference compound] | 352,000 nanomoles per milligrams per hour | 39,000 nanomoles per milligrams per hour | 320,000 nanomoles per milligrams per h | more activity | 39,000 nanomoles per milligrams per h
3 | Nc1nc(Cl)nc2c1ncn2[C@H]1C[C@H](O)[C@@H](CO)O1 [2-Cl-2′-deoxyadenosine (α-L), 2-Cl-2′-deoxyadenosine] | <8 nanomoles per milligrams per hour | <1 nanomoles per milligrams per hour |  |  | 
4 | Nc1nc(Cl)nc2c1ncn2[C@H]1C[C@H](O)[C@@H](CO)O1 [2-Cl-2′-deoxyadenosine (β-L), 2-Cl-2′-deoxyadenosine] | <8 nanomoles per milligrams per hour | <1 nanomoles per milligrams per hour |  |  | 
5 | Nc1nc(F)nc2c1ncn2[C@H]1C[C@H](O)[C@@H](CO)O1 [2-F-2′-deoxyadenosine (F-dAdo), 2-fluoro-2′-deoxyadenosine] | 400,000 nanomoles per milligrams per hour | 435,000 nanomoles per milligrams per hour |  |  | 
6 | C[C@H]1O[C@@H](n2cnc3c(N)nc(F)nc32)[C@H](O)[C@@H]1O [2-F-5′-deoxy-adenosine, 2-fluoro-5′-deoxyadenosine] | 50,000 nanomoles per milligrams per hour | 29,000 nanomoles per milligrams per hour |  | more activity | 
7 | Nc1nc(F)nc2c1ncn2[C@@H]1O[C@H](CO)[C@@H](O)[C@H]1O [2-F-adenosine] | 185,000 nanomoles per milligrams per hour | 215,000 nanomoles per milligrams per hour |  |  | 
8 | Nc1ncnc2c1ncn2[C@H]1CC[C@@H](CO)O1 [2′,3′-dideoxyadenosine] | 640 nanomoles per milligrams per hour | <2 nanomoles per milligrams per hour |  |  | 
9 | CO[C@@H]1[C@H](O)[C@@H](CO)O[C@H]1n1cnc2c(N)ncnc21 [2′-O^methyl-adenosine] | <10 nanomoles per milligrams per hour | <1 nanomoles per milligrams per hour |  |  | 
10 | OC[C@H]1O[C@@H](n2cnc3c(O)ncnc32)C[C@@H]1O [2′-deoxyinosine, reference compound] | 660,000 nanomoles per milligrams per hour | 733,000 nanomoles per milligrams per hour |  |  | 
11 | Nc1ncnc2c1ncn2[C@@H]1O[C@H](CO)C[C@H]1O [3′-deoxyadenosine (cordycepin), 3′-deoxyadenosine, reference compound] | 2,000 nanomoles per milligrams per hour | <2 nanomoles per milligrams per hour |  |  | 
12 | NC[C@H]1O[C@@H](n2cnc3c(N)ncnc32)[C@H](O)[C@@H]1O [5′-amino-5′-deoxyadenosine] | 4,200 nanomoles per milligrams per hour | 540 nanomoles per milligrams per hour |  |  | 
13 | NC(=O)[C@H]1O[C@@H](n2cnc3c(N)ncnc32)[C@H](O)[C@@H]1O [5′-carboxamide of adenosine] | 33 nanomoles per milligrams per hour | <1 nanomoles per milligrams per hour |  |  | 
14 | C[C@H]1O[C@@H](n2cnc3c(N)ncnc32)[C@H](O)[C@@H]1O [5′-deoxyadenosine] | 50,000 nanomoles per milligrams per hour | 8,400 nanomoles per milligrams per hour |  |  | 
15 | Cc1ncnc2ncn([C@H]3C[C@H](O)[C@H](CO)O3)c12 [7-[2-deoxy-α-L-lyxofuranosyl]-6-methylpurine] | <8 nanomoles per milligrams per hour | <1 nanomoles per milligrams per hour |  |  | 
16 | Nc1nc2ncn([C@@H]3O[C@H](CO)[C@@H](O)[C@H]3O)c2c(=S)[nH]1 [7-β-D-ribosyl-6-thioguanine] | 435 nanomoles per milligrams per hour | 66 nanomoles per milligrams per hour |  |  | 
17 | O=c1[nH]cnc2ncn([C@@H]3O[C@H](CO)[C@@H](O)[C@H]3O)c12 [7-β-D-ribosyl-hypoxanthine] | 2,300 nanomoles per milligrams per hour | 5,200 nanomoles per milligrams per hour |  |  | 
18 | Cc1ncnc2c1ncn2[C@@H]1C[C@H](O)[C@@H](CO)O1 [9-[2-deoxy-α-D-ribofuranosyl]-6-methylpurine] | <8 nanomoles per milligrams per hour | <1 nanomoles per milligrams per hour |  |  | 
19 | Cc1ncnc2c1ncn2[C@@H]1O[C@H](C(C)(C)O)[C@@H](O)[C@H]1O [9-[5,5-dimethyl-β-D-ribofuranosyl]-6-methylpurine] | <8 nanomoles per milligrams per hour | <1 nanomoles per milligrams per hour |  |  | 
20 | Cc1ncnc2c1ncn2[C@@H]1O[C@@H](CI)[C@@H](O)[C@H]1O [9-[5-deoxy-5-iodo-α-L-lyxofuranosyl]-6-methylpurine] | <8 nanomoles per milligrams per hour | <1 nanomoles per milligrams per hour |  |  | 
21 | Cc1ncnc2c1ncn2[C@@H]1O[C@@H](C)[C@@H](O)[C@H]1O [9-[5-deoxy-α-L-lyxofuranosyl]-6-methylpurine] | 246 nanomoles per milligrams per hour | 20 nanomoles per milligrams per hour |  |  | 
22 | Cc1ncnc2c1ncn2[C@@H]1O[C@H](C)[C@@H](O)[C@H]1O [9-[5-deoxy-β-D-ribofuranosyl]-6-methylpurine] | 3,600 nanomoles per milligrams per hour | 406 nanomoles per milligrams per hour |  |  | 
23 | Cc1ncnc2c1ncn2[C@@H]1O[C@H]([C@@H](C)O)[C@@H](O)[C@H]1O [9-[5-methyl-(allo)-β-D-ribofuranosyl]-6-methylpurine] | 223 nanomoles per milligrams per hour | 47 nanomoles per milligrams per hour |  | more activity | 
24 | Cc1ncnc2c1ncn2[C@H]1C[C@H](O)[C@@H]([C@H](C)O)O1 [9-[5-methyl-(talo)-2-deoxy-β-D-ribofuranosyl]-6-methylpurine] | 103,000 nanomoles per milligrams per hour | 3,600 nanomoles per milligrams per hour |  | more activity | 
25 | Cc1ncnc2c1ncn2[C@@H]1O[C@H]([C@H](C)O)[C@@H](O)[C@H]1O [9-[5-methyl-(talo)-β-D-ribofuranosyl]-6-methylpurine] | 8,400 nanomoles per milligrams per hour | 915 nanomoles per milligrams per hour |  | more activity | 
26 | Cc1ncnc2c1ncn2[C@@H]1O[C@H](CO)[C@@H](O)[C@@H]1O [9-[β-D-arabinofuranosyl]-6-methylpurine] | 570 nanomoles per milligrams per hour | 14 nanomoles per milligrams per hour |  |  | 
27 | Nc1nc(F)nc2c1ncn2[C@@H]1O[C@@H](CO)[C@@H](O)[C@H]1O [9-α-L-lyxofuranosyl-2-F-adenine, 9-(α-L-lyxofuranosyl)-2-fluoroadenine] | 28,200 nanomoles per milligrams per hour | 7,800 nanomoles per milligrams per hour |  | more activity | 
28 | Cc1ncnc2c1ncn2[C@@H]1O[C@@H](CO)[C@@H](O)[C@H]1O [9-α-L-lyxofuranosyl-6-methylpurine] | 10,000 nanomoles per milligrams per hour | 320 nanomoles per milligrams per hour |  |  | 
29 | Nc1ncnc2c1ncn2[C@@H]1O[C@@H](CO)[C@@H](O)[C@H]1O [9-α-L-lyxofuranosyl-adenine] | 22,000 nanomoles per milligrams per hour | 3,700 nanomoles per milligrams per hour |  |  | 
30 | Nc1ncnc2c1ncn2[C@@H]1O[C@H](CO)[C@@H](O)[C@H]1O [Adenosine, reference compound] | 501,000 nanomoles per milligrams per hour |  |  |  | 
